Peptide text beside a SMILES is read from it. * marks the point of attachment. Cbz = O=C(OCc1ccccc1)*; CH2F = FC*
Assays:
Gal4-DBD-RXRα-LBD = target: T1, Gal4-DBD-RXRα-LBD (Homo sapiens, UniProt P19793); assay: Mammalian one hybrid assay, Gal4-DBD-RXRα-LBD with pG5-luc reporter; format: cell-based; conditions: HEK293T cells; for Gal4-DBD-RXRα-LBD transcriptional activity (relative luciferase activity): 10 µM, 12 h
T1 sequence (P19793 227-458 limits assumed): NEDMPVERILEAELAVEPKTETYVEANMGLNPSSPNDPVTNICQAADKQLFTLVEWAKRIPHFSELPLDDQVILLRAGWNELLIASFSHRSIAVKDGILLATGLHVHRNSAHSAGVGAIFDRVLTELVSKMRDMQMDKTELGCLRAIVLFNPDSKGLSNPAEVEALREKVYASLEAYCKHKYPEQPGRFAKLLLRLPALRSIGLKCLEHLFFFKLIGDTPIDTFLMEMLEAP

Gal4-DBD-RARα-LBD = Gal4-DBD-RARα-LBD (Homo sapiens, UniProt P10276); assay: Mammalian one hybrid assay, Gal4-DBD-RARα-LBD; format: cell-based; conditions: HEK293T cells, 5 µM, 12 h
Sequence of Gal4-DBD-RARα-LBD (P10276 183-417 limits assumed): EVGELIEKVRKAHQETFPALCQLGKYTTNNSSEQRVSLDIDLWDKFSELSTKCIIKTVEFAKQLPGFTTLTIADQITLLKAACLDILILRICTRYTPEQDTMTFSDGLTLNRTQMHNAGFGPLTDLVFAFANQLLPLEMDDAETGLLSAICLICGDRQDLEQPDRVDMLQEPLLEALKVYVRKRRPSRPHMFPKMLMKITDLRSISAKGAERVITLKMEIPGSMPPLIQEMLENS

RARγ = RARγ (Homo sapiens, UniProt P13631); assay: Mammalian one hybrid assay, RARγ chimeric reporter; format: cell-based; conditions: HEK293T cells, 5 µM, 12 h
Sequence of RARγ (P13631 185-419 limits assumed, species assumed): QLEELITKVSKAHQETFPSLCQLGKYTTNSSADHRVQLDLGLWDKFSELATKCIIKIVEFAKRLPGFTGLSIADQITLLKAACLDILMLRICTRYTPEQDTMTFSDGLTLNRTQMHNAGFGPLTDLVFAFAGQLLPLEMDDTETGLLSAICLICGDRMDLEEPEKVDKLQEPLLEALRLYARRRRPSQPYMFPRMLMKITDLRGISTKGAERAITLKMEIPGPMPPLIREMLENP

Gal4-DBD-ERα-LBD = Gal4-DBD-ERα-LBD (Homo sapiens, UniProt P03372); assay: Mammalian one hybrid assay, Gal4-DBD-ERα-LBD; format: cell-based; conditions: HEK293T cells, 5 µM, 12 h
Sequence of Gal4-DBD-ERα-LBD (P03372 311-547 limits assumed): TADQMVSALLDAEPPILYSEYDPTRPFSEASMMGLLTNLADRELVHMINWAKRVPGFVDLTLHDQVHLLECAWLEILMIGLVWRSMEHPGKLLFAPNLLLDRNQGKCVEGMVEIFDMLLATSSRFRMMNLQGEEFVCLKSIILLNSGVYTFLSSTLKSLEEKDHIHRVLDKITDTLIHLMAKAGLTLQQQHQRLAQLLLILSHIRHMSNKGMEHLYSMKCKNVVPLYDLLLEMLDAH

GR = GR (Homo sapiens, UniProt P04150); assay: Mammalian one hybrid assay, GR chimeric reporter; format: cell-based; conditions: HEK293T cells, 5 µM, 12 h
Sequence of GR (P04150 524-758 limits assumed): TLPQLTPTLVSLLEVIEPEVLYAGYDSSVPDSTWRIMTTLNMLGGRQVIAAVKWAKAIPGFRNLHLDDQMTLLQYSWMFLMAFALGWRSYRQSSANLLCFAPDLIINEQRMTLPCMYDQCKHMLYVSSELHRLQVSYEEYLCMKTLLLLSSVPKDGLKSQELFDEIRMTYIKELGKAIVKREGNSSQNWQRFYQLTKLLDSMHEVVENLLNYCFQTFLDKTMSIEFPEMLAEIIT

LXRα = LXRα (Homo sapiens, UniProt Q13133); assay: Mammalian one hybrid assay, LXRα chimeric reporter; format: cell-based; conditions: HEK293T cells, 5 µM, 12 h
Sequence of LXRα (Q13133 209-447 limits assumed): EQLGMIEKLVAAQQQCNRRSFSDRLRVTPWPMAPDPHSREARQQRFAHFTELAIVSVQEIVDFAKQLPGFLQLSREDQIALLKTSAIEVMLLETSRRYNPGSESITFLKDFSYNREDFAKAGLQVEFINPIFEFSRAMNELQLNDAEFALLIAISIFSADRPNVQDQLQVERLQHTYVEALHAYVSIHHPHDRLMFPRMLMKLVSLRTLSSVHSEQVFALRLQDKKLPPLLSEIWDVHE

PPARγ = PPARγ (Homo sapiens, UniProt P37231); assay: Mammalian one hybrid assay, PPARγ chimeric reporter; format: cell-based; conditions: HEK293T cells, 5 µM, 12 h
Sequence of PPARγ (P37231 238-503 limits assumed, species assumed): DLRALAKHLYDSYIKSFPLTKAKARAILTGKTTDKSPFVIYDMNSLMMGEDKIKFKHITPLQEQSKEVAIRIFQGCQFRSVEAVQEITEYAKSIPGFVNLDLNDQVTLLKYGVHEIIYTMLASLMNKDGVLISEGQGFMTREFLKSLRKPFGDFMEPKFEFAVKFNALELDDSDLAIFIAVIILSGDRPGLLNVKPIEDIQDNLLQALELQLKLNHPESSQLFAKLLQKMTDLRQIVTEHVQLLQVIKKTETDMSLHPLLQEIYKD

RXRα-LBD [1] = target: T2, RXRα-LBD (Homo sapiens, UniProt P19793); assay: Ligand competition assay with [3H]9-cis-RA; format: binding
T2 sequence (P19793 223-462): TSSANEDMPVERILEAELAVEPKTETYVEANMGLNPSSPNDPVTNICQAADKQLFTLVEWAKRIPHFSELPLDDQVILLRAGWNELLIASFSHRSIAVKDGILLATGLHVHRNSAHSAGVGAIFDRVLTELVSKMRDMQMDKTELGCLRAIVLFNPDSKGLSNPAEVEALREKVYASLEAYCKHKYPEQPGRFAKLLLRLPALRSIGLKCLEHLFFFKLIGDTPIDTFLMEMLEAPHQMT

RXRα-LBD [2] = target: T2, RXRα-LBD; assay: Surface plasmon resonance; format: binding
RXRα-LBD [3] = target: T2, RXRα-LBD; assay: Differential scanning calorimetry; format: binding
Gal4-DBD-RXRα-LBD/R316E = Gal4-DBD-RXRα-LBD/R316E (Homo sapiens, UniProt P19793, R316E); assay: Mammalian one hybrid assay, Gal4-DBD-RXRα-LBD/R316E; format: cell-based; conditions: HEK293T cells; 9-cis-RA 0.1 µM, Z-10 and Z-12 5 µM
Sequence of Gal4-DBD-RXRα-LBD/R316E (P19793 227-458 R316E limits assumed): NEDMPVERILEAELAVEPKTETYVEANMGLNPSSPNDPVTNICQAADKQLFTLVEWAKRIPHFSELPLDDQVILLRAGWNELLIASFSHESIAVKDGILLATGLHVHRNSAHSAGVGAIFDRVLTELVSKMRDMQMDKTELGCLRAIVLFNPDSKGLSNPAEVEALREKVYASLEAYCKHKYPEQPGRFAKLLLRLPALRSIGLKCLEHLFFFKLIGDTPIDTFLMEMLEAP

Gal4-DBD-RXRα-LBD C432S = Gal4-DBD-RXRα-LBD C432S (Homo sapiens, UniProt P19793, C432S); assay: Mammalian one hybrid assay, Gal4-DBD-RXRα-LBD C432S mutant; format: cell-based; conditions: HEK293T cells; 9-cis-RA 0.1 µM, Z-10 and Z-12 5 µM
Sequence of Gal4-DBD-RXRα-LBD C432S (P19793 227-458 C432S limits assumed): as the sequence (P19793 227-458 R316E limits assumed) above, with E90R, C206S counted along it

tRXRα with p85α = assay: TNFα-induced interaction of tRXRα with p85α; format: cell-based
p65 in MCF-7 cells = assay: TNFα-induced p65 nuclear translocation, immunostaining; format: cell-based, human; conditions: 10 µM pretreatment 1 h, TNFα 10 ng/ml 30 min
[4] = test system: IκBα, IKKα/β in MCF-7 cells; assay: TNFα-induced IκBα degradation and IKKα/β phosphorylation, immunoblotting; format: cell-based, human; conditions: for TNFα-induced IKKα/β phosphorylation / TNFα-induced IκBα degradation: TNFα 10 ng/ml, Z-10 7.5 µM, Z-12 5 µM
MCF-7 cells = assay: Apoptosis; format: cell-based, human; conditions: for apoptosis (PARP cleavage, nuclear fragmentation), agent alone / apoptosis (PARP cleavage, nuclear fragmentation) together with TNFα: MCF-7 cells, 9 h; for apoptosis (PARP cleavage, nuclear fragmentation) together with TNFα: with TNFα 10 ng/ml, Z-10 7.5 µM, Z-12 5 µM; for PARP cleavage induced by the combination of TNFα and Z compounds: effect of added agent on the combination
MCF-7 xenografts = MCF-7 xenografts in nude mice; format: in vivo, Nude mice (BALB/c); conditions: MCF-7 bearing mice, 30 mg/kg oral once a day
RXRα-LBD [5] = target: T2, RXRα-LBD; assay: Non-denaturing PAGE of RXRα-LBD oligomers; conditions: Z compounds 10 µM, 9-cis-RA 0.5 µM, 3 h
RXRα homodimer = RXRα homodimer (Homo sapiens, UniProt P19793); assay: RXRE-luciferase reporter assay; conditions: HEK293T cells, 12 h
Sequence of RXRα homodimer (P19793 whole entry): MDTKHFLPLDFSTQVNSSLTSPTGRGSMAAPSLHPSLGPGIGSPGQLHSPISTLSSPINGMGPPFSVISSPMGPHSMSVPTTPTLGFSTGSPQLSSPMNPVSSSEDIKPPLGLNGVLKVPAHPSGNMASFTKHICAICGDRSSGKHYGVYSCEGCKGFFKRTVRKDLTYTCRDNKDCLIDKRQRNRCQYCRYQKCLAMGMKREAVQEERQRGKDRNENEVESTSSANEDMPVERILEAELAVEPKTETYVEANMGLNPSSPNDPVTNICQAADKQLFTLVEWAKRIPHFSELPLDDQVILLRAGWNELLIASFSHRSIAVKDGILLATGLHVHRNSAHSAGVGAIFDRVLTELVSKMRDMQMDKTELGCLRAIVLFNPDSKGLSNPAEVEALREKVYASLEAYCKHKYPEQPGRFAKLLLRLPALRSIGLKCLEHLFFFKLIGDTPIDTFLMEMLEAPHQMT

tRXRα with TRAF2 = tRXRα with TRAF2 (Homo sapiens, UniProt P19793); assay: TNFα-induced TRAF2/tRXRα complex formation, co-immunoprecipitation; conditions: HEK293T cells, 5 µM 1 h, TNFα 40 ng/ml 15 min
Sequence of tRXRα with TRAF2 (P19793 81-462 limits assumed): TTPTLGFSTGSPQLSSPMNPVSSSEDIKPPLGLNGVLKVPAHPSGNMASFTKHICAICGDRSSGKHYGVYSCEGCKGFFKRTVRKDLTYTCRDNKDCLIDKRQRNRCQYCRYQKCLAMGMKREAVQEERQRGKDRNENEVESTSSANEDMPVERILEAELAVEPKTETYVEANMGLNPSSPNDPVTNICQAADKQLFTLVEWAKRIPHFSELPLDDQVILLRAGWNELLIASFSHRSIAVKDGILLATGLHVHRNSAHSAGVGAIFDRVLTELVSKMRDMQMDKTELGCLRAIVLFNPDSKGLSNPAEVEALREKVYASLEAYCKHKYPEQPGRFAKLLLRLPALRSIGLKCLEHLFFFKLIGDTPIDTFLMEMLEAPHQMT

Akt = conditions: by preventing the interaction of tRXRα and p85α; cited from earlier work
NFκB = NFκB reporter gene assay; format: cell-based
RIP1 in MCF-7 cells = assay: tRXRα-promoted TNFα-induced RIP1 ubiquitination; format: cell-based, human; conditions: 10 µM 1 h, TNFα 20 ng/ml 5 min
SEC = target: the molecule itself; assay: SEC

Molecule: O=[N+]([O-])/C=C/c1c2ccccc2cc2ccccc12 [Z-12, (E)-9-(2-nitrovinyl)anthracene]
- RXRα transactivation, dose dependence (Gal4-DBD-RXRα-LBD): dose-dependently activated
- RXRα transactivation relative to activity of 0.1 µM 9-cis-RA (Gal4-DBD-RXRα-LBD; compound at 10 µM, % of activity of 0.1 µM 9-cis-RA): about 50%
- activation of RARα chimeric reporter (Gal4-DBD-RARα-LBD): neither of them significantly activated
- activation of RARγ chimeric reporter (RARγ): neither of them significantly activated
- activation of ERα chimeric reporter (Gal4-DBD-ERα-LBD): neither of them significantly activated
- activation of GR chimeric reporter (GR): neither of them significantly activated
- activation of LXRα chimeric reporter (LXRα): neither of them significantly activated
- activation of PPARγ chimeric reporter (PPARγ): neither of them significantly activated
- IC50 (RXRα-LBD [1]): 810 nM
- Kd (RXRα-LBD [2]): 1950 nM
- Tm values of RXRα-LBD protein (DSC) (RXRα-LBD [3]): shifted higher
- transactivation of Gal4-DBD-RXRα-LBD/R316E (Gal4-DBD-RXRα-LBD/R316E): strongly activated
- activation of Gal4-DBD-RXRα-LBD with Cys432 mutated to Ser (Gal4-DBD-RXRα-LBD C432S): completely incapacitated
- inhibition of TNFα-induced interaction of tRXRα with p85α (tRXRα with p85α): could not inhibit
- TNFα-induced p65 nuclear translocation (p65 in MCF-7 cells): significantly inhibited
- TNFα-induced IKKα/β phosphorylation ([4]; MCF-7 cells): significantly inhibited
- TNFα-induced IκBα degradation ([4]; MCF-7 cells): significantly inhibited
- effect on inhibiting TNFα-induced IκBα degradation when TRAF2 expression was suppressed by siRNA ([4]; MCF-7 cells, TRAF2 siRNA 36 h, TNFα 10 ng/ml 30 min): dramatically reduced
- apoptosis (PARP cleavage, nuclear fragmentation), agent alone (MCF-7 cells): did not happen
- apoptosis (PARP cleavage, nuclear fragmentation) together with TNFα (MCF-7 cells): significant apoptosis
- tumor growth and apoptosis of cancer cells, compound alone (MCF-7 xenografts): Tumor growth inhibition and extensive apoptosis of cancer cells
- RXRα-LBD tetramer/dimer formation on native gel (RXRα-LBD [5]): induced homodimer formation
- effect on 9-cis-RA-induced RXRα homodimer transactivation (RXRα homodimer; 5 µM with 9-cis-RA 0.1 µM): inhibited 9-cis-RA-induced transactivation
- transactivation of RXRα homodimer (RXRE-luciferase) (RXRα homodimer; 5 µM): failed to induce the transactivation
- TNFα-induced interaction of tRXRα with TRAF2 (tRXRα with TRAF2): strongly inhibited

Molecule: Cc1ccc(/C=C/[N+](=O)[O-])cc1 [Z-1, (E)-1-methyl-4-(2-nitrovinyl)benzene]
- Gal4-DBD-RXRα-LBD transcriptional activity (relative luciferase activity) (Gal4-DBD-RXRα-LBD): selectively activated

Molecule: CC1=C(CC(=O)O)c2cc(F)ccc2/C1=C\c1ccc(C(C)C)cc1 [K-80003]
- inhibition of TNFα-induced Akt activation (Akt): could inhibit

Molecule: O=[N+]([O-])/C=C/c1cccc2ccccc12 [Z-10, (E)-1-(2-nitrovinyl)naphthalene]
- activation of RARα chimeric reporter (Gal4-DBD-RARα-LBD): neither of them significantly activated
- activation of RARγ chimeric reporter (RARγ): neither of them significantly activated
- activation of ERα chimeric reporter (Gal4-DBD-ERα-LBD): neither of them significantly activated
- activation of GR chimeric reporter (GR): neither of them significantly activated
- activation of LXRα chimeric reporter (LXRα): neither of them significantly activated
- activation of PPARγ chimeric reporter (PPARγ): neither of them significantly activated
- inhibition of NFκB activation by TNFα (reporter gene assay) (NFκB): dose-dependently inhibited
- TNFα-induced p65 nuclear translocation (p65 in MCF-7 cells): significantly inhibited
- inhibitory effect on TNFα-induced IκBα degradation, MCF-7 versus H460 cells ([4]; 7.5 µM 1 h, TNFα 30 min, MCF-7 express higher RXRα and tRXRα than H460): stronger in MCF-7 cells
- TNFα-induced IKKα/β phosphorylation ([4]; MCF-7 cells): significantly inhibited
- TNFα-induced IκBα degradation ([4]; MCF-7 cells): significantly inhibited
- RXRα/Δ80-promoted TNFα-induced RIP1 ubiquitination (RIP1 in MCF-7 cells): largely blocked
- apoptosis (PARP cleavage, nuclear fragmentation), agent alone (MCF-7 cells): did not happen
- apoptosis (PARP cleavage, nuclear fragmentation) together with TNFα (MCF-7 cells): significant apoptosis
- tumor growth and apoptosis of cancer cells, compound alone (MCF-7 xenografts): Tumor growth inhibition and extensive apoptosis of cancer cells

Molecule: COC(=O)C[C@H](NC(=O)[C@H](C)NC(=O)[C@@H](NC(=O)OCc1ccccc1)C(C)C)C(=O)CF [Z-VAD-FMK] (Cbz-Val-Ala-Asp(OMe)-CH2F)
- PARP cleavage induced by the combination of TNFα and Z compounds (MCF-7 cells): completely blocked

Molecule: CC1=C(/C=C/C(C)=C\C=C\C(C)=C\C(=O)O)C(C)(C)CCC1 [9-cis-RA, 9-cis-retinoic acid]
- TNFα-induced IκBα degradation ([4]; MCF-7 cells): did not show apparent effects
- apoptosis (PARP cleavage, nuclear fragmentation) together with TNFα (MCF-7 cells): little effect
- PARP cleavage induced by the combination of TNFα and Z compounds (MCF-7 cells): able to suppress

Molecule: TNFα
- apoptosis (PARP cleavage, nuclear fragmentation), agent alone (MCF-7 cells): did not happen

Molecule: O=[N+]([O-])/C=C/c1ccc2ccccc2c1 [Z-11, (E)-2-(2-nitrovinyl)naphthalene]
- Gal4-DBD-RXRα-LBD transcriptional activity (relative luciferase activity) (Gal4-DBD-RXRα-LBD): unable to activate RXRα
- IC50 (RXRα-LBD [1]): 330 nM
- Tm values of RXRα-LBD protein (DSC) (RXRα-LBD [3]): shifted higher
- RXRα-LBD tetramer/dimer formation on native gel (RXRα-LBD [5]): induced higher levels of RXRα-LBD oligomerization

Molecule: CD3254
- TNFα-induced IκBα degradation ([4]; MCF-7 cells): did not show apparent effects
- apoptosis (PARP cleavage, nuclear fragmentation) together with TNFα (MCF-7 cells): little effect
- PARP cleavage induced by the combination of TNFα and Z compounds (MCF-7 cells): able to suppress

Molecule: CCCCCOc1cc2c(cc1-c1cc(/C=C/C(=O)O)ccc1O)C(C)(C)CCC2(C)C [UVI3003]
- TNFα-induced IκBα degradation ([4]; MCF-7 cells): did not show apparent effects
- apoptosis (PARP cleavage, nuclear fragmentation) together with TNFα (MCF-7 cells): little effect
- PARP cleavage induced by the combination of TNFα and Z compounds (MCF-7 cells): able to suppress

B1: RXRα-LBD/C432W (domain or fragment, human, UniProt P19793 223-462, looked up)
chain: TSSANEDMPVERILEAELAVEPKTETYVEANMGLNPSSPNDPVTNICQAADKQLFTLVEWAKRIPHFSELPLDDQVILLRAGWNELLIASFSHRSIAVKDGILLATGLHVHRNSAHSAGVGAIFDRVLTELVSKMRDMQMDKTELGCLRAIVLFNPDSKGLSNPAEVEALREKVYASLEAYCKHKYPEQPGRFAKLLLRLPALRSIGLKWLEHLFFFKLIGDTPIDTFLMEMLEAPHQMT
- stoichiometry N (SEC): 2

— PMC4433622 (Cancer research, 2015)
